Test results taken from US9073858B2, “Methods of targeted drug development” (priority 2010, dated 2015).
Where two headings read alike, the source gives them in different places.

What was measured:
[1] = test system: HT-29 cells; assay: HT-29 Cell Proliferation Assay (MTT); format: cell-based; conditions: Homo sapiens, HT-29, 72 h, read-out: IC50 Value (μM) HT-29 Cells
[2] = Stability on incubation with mouse liver microsomes (MLM); format: in vitro ADME; conditions: percentage left after incubation with mouse liver microsomes for 30 minutes
Method in brief: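 Values are percent compound remaining after 30 min incubation with mouse or human liver microsomes.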

[3] = test system: MDBK line; assay: MTT Cell Proliferation Assay, MDBK line; format: cell-based, bovine; conditions: Bos taurus, MDBK
Method in brief: (§1)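 Cells plated overnight, then exposed 3 days at 37 °C, 5% CO2 to compound in growth medium with 0.5% FBS and 0.5% DMSO final (0.5% DMSO as control).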

[4] = test system: epithelial carcinoma A431 cell line; assay: MTT Cell Proliferation Assay, A431 cell line; format: cell-based; conditions: for IC50: Homo sapiens
Method in brief: as §1

SMILES	IC50 [1] [µM]	MLM % Remaining@ 30 Min [2] [%]	IC50 ([3]; 10 point follow-up, second value of pair, read-out: MTT (10 Point follow-up) MDBK) [µM]	IC50 ([3]; 72 h, second value of A431/MDBK pair, read-out: MTT-72 h MDBK) [µM]	MTT (10 Point follow-up) ratio ([4]; 10 point follow-up, value in brackets, numerically MDBK over A431)	MTT-72 h A431/MDBK (ratio) ([4]; 72 h, value in brackets, numerically MDBK value over A431 value)	IC50 ([4]; A-431, 10 point follow-up, first value of pair, read-out: MTT (10 Point follow-up) A431) [µM]	IC50 ([4]; A-431, 72 h, 72 h, first value of A431/MDBK pair, read-out: MTT-72 h A431) [µM]
Cc1cc(Cl)cnc1NC(c1ccc(Cl)cc1Cl)c1ccc2cccnc2c1O (stereo not shown) [AD4-13130]	0.64	69						
Cc1c(Cl)cnc(NC(c2cccc(Cl)c2Cl)c2ccc3cccnc3c2O)c1F (stereo not shown) [AD4-13192]	2.2	63						
Oc1c(C(Nc2ccccn2)c2ccc(C(F)(F)F)cc2)ccc2cccnc12 (stereo not shown) [compound 10460]			0.375	0.53	1.34	1.84	0.279	0.29
